The record followed here is ChEMBL document CHEMBL1137959, “Two new bacterial DNA primase inhibitors from the plant Polygonum cuspidatum” (Bioorg Med Chem Lett, 2004).

Assay [1] concerns the target Nucleic Acid. In words: Inhibitory activity against bacterial DNA primase. Format: nucleic-acid assay, Escherichia coli.
Assay [2] concerns the target Nucleic Acid. In words: Inhibitory activity against bacterial DNA primase in fluorescent intercalator dye displacement assay (FID). It counts as nucleic-acid assay, Escherichia coli.

One may read the IC50 as the point on the concentration scale where inhibition reaches its midpoint. For the compound `O=C(O[C@@H]1[C@@H](Oc2cc(O)cc(/C=C/c3ccc(O)cc3)c2)O[C@@H](CO)[C@@H](O)[C@@H]1O)c1cc(O)c(O)c(O)c1`, the IC50 in assay [1] and in assay [2] was 4 µM in each case.
In turn, `O=C(OC[C@@H]1O[C@H](Oc2cc(O)cc(/C=C/c3ccc(O)cc3)c2)[C@@H](O)[C@@H](O)[C@@H]1O)c1cc(O)c(O)c(O)c1` had an IC50 in assay [1] of 5 µM.
